From publication PMC7370100, “In Vitro Assessment of the Genotoxic Hazard of Novel Hydroxamic Acid- and Benzamide-Type Histone Deacetylase Inhibitors (HDACi)” (International Journal of Molecular Sciences, 2020)

Key:
V79 cells [1] = test: Phospho-ATM (pATM) foci formation; format: cell-based, hamster; conditions: 6 to 24 h, V79, in words
Excerpt: Figure 4 Cell cycle-related formation of DNA damage by hydroxamic acid- and benzamide-type HDACi. […] (B) For positive control, ionizing radiation (IR) was used. Shown are representative pictures of γH2AX, 53BP1, and pATM stained cells. […] Data shown are the mean ± SD from three independent experiments (n = 3); *, p ≤ 0.05; **, p ≤ 0.01 as compared to the untreated control, which was set to 1.0 (Student´s t-test).

V79 cells [2] = test: Nuclear 53BP1 foci formation; format: cell-based, hamster; conditions: 6 to 24 h, V79, in words
Procedure: The frequency of nuclear foci formed by S139 phosphorylated H2AX (γH2AX foci), which is a surrogate marker of DNA damage, especially DNA double-strand breaks (DSBs), was assayed by immunocytochemistry-based analysis. […] The appearance of nuclear 53BP1 foci, which is another marker of DSBs, was also determined by immunocytochemistry. Cells were fixed with 4% formaldehyde in phosphate-buffered saline (PBS) (MERCK, Darmstadt, Germany) (15 min, RT) followed by incubation with ice-cold methanol (≥20 min, −20 °C). After blocking (1 h, RT, blocking solution: 5% BSA (MERCK, Darmstadt, Germany) in PBS/0.3% Triton X-100 (Sigma, Steinheim, Germany)), incubation with γH2AX antibody and 53BP1 antibody was performed (1:500, overnight, 4 °C). After incubation with the secondary fluorescence-labeled antibody (1:500, 1 h, RT, in the dark), cells were mounted in Vectashield (Vector Laboratories (Burlingame, CA, USA)) containing DAPI. The number of nuclear γH2AX and 53BP1 foci was scored (Olympus BX43 fluorescence microscope). Only nuclei with distinct foci were evaluated and γH2AX pan-stained nuclei were excluded from the foci analyses. Data are shown as the mean ± SEM of three independent experiments with ≥50 nuclei analyzed per experimental condition.

[3] = parameters: method as in PMID 15897550; conditions: humans; read-out: maximal blood serum concentration (Cmax); cited from earlier work

## O=C(CCCCCCC(=O)Nc1ccccc1)NO [Vorinostat, vorinostat, reference compound]
V79 cells [1]
  formation of phospho-ATM (pATM) foci: did not cause the formation of phospho-ATM (pATM) foci
V79 cells [2]
  formation of nuclear 53BP1 foci: failed to cause the formation of nuclear 53BP1 foci
[3]
  Cmax: ~1000 nM
